# Data published in US10676514B2, “CDCA1-derived peptide and vaccine containing same” (ONCOTHERAPY SCIENCE, INC., priority 2014, dated 2020).
# “Also recorded” adds a separate entry of the source.
# Experiments:
# Type in all cases: cell-based, human
# [1] = system: peptide-pulsed C1R-A33 cells; assay: IFN-gamma ELISPOT assay of peptide-induced CTLs (HLA-A*3303); details: CTLs induced from HLA-A*3303-positive donors, peptide-pulsed C1R-A33 vs control
# Text: (§1) Monocyte-derived dendritic cells (DCs) were used as the antigen-presenting cell to induce a cytotoxic T lymphocyte (CTL) response against peptides presented on human leukocyte antigens (HLAs). As described in the other sections, DCs were generated in vitro (Nakahara S et al., Cancer Res 2003, 63(14): 4112-8). Specifically, peripheral-blood mononuclear cells isolated from healthy volunteers (HLA-A*3303-positive) with the Ficoll-Paque plus solution (Pharmacia) were separated by attaching to plastic tissue culture dishes (Becton Dickinson) and concentrated as a monocyte fraction. The monocyte-concentrated population was cultured in the presence of 1000 IU/ml granulocyte macrophage colony-stimulating factor (R&D System) and 1000 IU/ml interleukin(IL)-4 (R&D System) in an AIM-V medium (Invitrogen) containing 2% heat-inactivated autologous serum (AS). After seven days of culturing, the cytokine-induced DCs were pulsed with 20 micro-g/ml each of the synthesized peptides in an AIM-V medium at 37 degrees C. for three hours in the presence of 3 micro-g/ml beta 2-microglobulin. The generated cells appeared to express on their cell surface DC-associated molecules such as CD80, CD83, CD86 and HLA class II (data not shown). Next, these peptide-pulsed DCs were inactivated by X-ray irradiation (20 Gy), and mixed in a 1:20 ratio with autologous CD8^+ T cells obtained by positive selection using the CD8 Positive Isolation Kit (Dynal). These culture products were seeded in a 48-well plate (Corning). Each well was made to contain 1.5×10^4 peptide-pulsed DCs, 3×10^5 CD8^+ T cells and 10 ng/ml IL-7 (R&D System) in 0.5 ml of the AIM-V/2% AS medium. Three days later, these culture products were added with a final concentration of 20 IU/ml IL-2 (CHIRON). On day 7 and day 14, T cells were further stimulated with peptide-pulsed autologous DCs. The DCs were prepared every time by the same method as above. On day 21, after the third peptide stimulation, CTLs were examined against the peptide-pulsed CIR-A33 cell by a human interferon (IFN)-gamma enzyme-linked immunospot (ELISPOT) assay (Tanaka H et al., Br J Cancer 2001, 84(1): 94-9; Umano Y et al., Br J Cancer 2001, 84(8): 1052-7; Uchida N et al., Clin Cancer Res 2004, 10(24): 8577-86; Suda T et al., Cancer Sci 2006, 97(5): 411-9; Watanabe T et al., Cancer Sci 2005, 96(8): 498-506).
# (§2) Specifically, peptide-pulsed C1R-A33 (1×10^4 cells/well) was prepared as the stimulator cell. The induced CTLs, i.e., CTL lines and CTL clones, were used as the responder cell. The IFN-gamma ELISPOT assay and IFN-gamma ELISA were performed according to the manufacturer's manual.
# peptide-pulsed C1R-A33 = assay: IFN-gamma ELISA of CTL lines and CTL clones (HLA-A*3303); details: for IFN-gamma production of CTL lines: peptide-pulsed vs non-pulsed target cells, HLA-A*3303
# Description: (§3) CTLs were propagated in culture using methods similar to those disclosed by Riddell et al. (Walter E A et al., N Engl J Med 1995, 333(16): 1038-44; Riddell S R et al., Nat Med 1996, 2(2): 216-23). The CTLs were co-cultured in a total of 25 ml AIM-V medium containing 5% AS (AIM-V/5% AS) and 40 ng/ml anti-CD3 antibody with two types of Mitomycin C-treated human B lymphoblastoid cell lines at 5×10^6 cells/flask. One day after beginning of the culturing, 120 IU/ml IL-2 was added to the culture. On days 5, 8 and 11, a fresh AIM-V/5% AS medium containing 30 IU/ml IL-2 was added to the culture (Tanaka H et al., Br J Cancer 2001, 84(1): 94-9; Umano Y et al., Br J Cancer 2001, 84(8): 1052-7; Uchida N et al., Clin Cancer Res 2004, 10(24): 8577-86; Suda T et al., Cancer Sci 2006, 97(5): 411-9; Watanabe T et al., Cancer Sci 2005, 96(8): 498-506).
# (§4) Dilution of CTLs was carried out to make 0.3, 1 and 3 cells/well in 96 round-bottomed microtiter plates (Nalge Nunc International). The CTLs were co-cultured with two types of Mitomycin C-treated human B lymphoblastoid cell lines at 1×10^4 cells/well in a total of 150 micro-l/well AIM-V/5% AS medium with 30 ng/ml anti-CD3 antibody and 125 IU/ml IL-2. Ten days later, IL-2 was added to the medium at 50 micro-l/well to reach a final concentration of 125 IU/ml. On day 14, the CTL activity was tested, and the CTL clones were propagated using the same method as described above (Uchida N et al., Clin Cancer Res 2004, 10(24): 8577-86; Suda T et al., Cancer Sci 2006, 97(5): 411-9; Watanabe T et al., Cancer Sci 2005, 96(8): 498-506).
# as §2
# peptide-pulsed C1R-A11 = assay: IFN-gamma ELISA of CTL lines and CTL clones (HLA-A*1101); details: for IFN-gamma production of CTL lines: peptide-pulsed vs non-pulsed target cells, HLA-A*1101
# Description: as §3, §4
# (§5) Specifically, peptide-pulsed C1R-A11 (1×10^4 cells/well) was prepared as the stimulator cell. The induced CTLs, i.e., CTL lines and CTL clones, were used as the responder cell. The IFN-gamma ELISPOT assay and IFN-gamma ELISA were performed according to the manufacturer's manual.
# [2] = system: peptide-pulsed C1R-A11 cells; assay: IFN-gamma ELISPOT assay of peptide-induced CTLs (HLA-A*1101); details: CTLs induced from HLA-A*1101-positive donors, peptide-pulsed C1R-A11 vs control
# Text: as §1, with “(HLA-A*1101-positive)” for “(HLA-A*3303-positive)”, “C1R-A11 cells” for “CIR-A33 cell”
# as §5
sequence,measurement,setting,value
DILCPKAKR (a peptide derived from CDCA1) [SEQ ID NO: 60],peptide-specific CTL activity (IFN-gamma production),[1],potent IFN-gamma production
DTVQKLKNAR (a peptide derived from CDCA1) [SEQ ID NO: 69],IFN-gamma production of CTL lines,peptide-pulsed C1R-A33,potent IFN-gamma production
same,peptide-specific CTL activity (IFN-gamma production),[1],potent IFN-gamma production
ETADILCPK (a peptide derived from CDCA1) [SEQ ID NO: 5],IFN-gamma production of CTL clones,"peptide-pulsed C1R-A11; CTL clones by limiting dilution, peptide-pulsed C1R-A11, listed as CDCA1-A11-9-105",Potent IFN-gamma production
same,IFN-gamma production of CTL lines,peptide-pulsed C1R-A11,potent IFN-gamma production
same,peptide-specific CTL activity (IFN-gamma production),[2]; listed as CDCA1-A11-9-105,potent IFN-gamma production; also recorded: significant specific CTL activity
same,peptide-specific CTL activity (IFN-gamma production),[1],potent IFN-gamma production
GIINFIHFR (a peptide derived from CDCA1) [SEQ ID NO: 3],IFN-gamma production of CTL lines,peptide-pulsed C1R-A11,potent IFN-gamma production
same,IFN-gamma production of CTL clones,"peptide-pulsed C1R-A33; CTL clones by limiting dilution, peptide-pulsed C1R-A33, listed as CDCA1-A33-9-123",Potent IFN-gamma production
same,IFN-gamma production of CTL lines,peptide-pulsed C1R-A33,potent IFN-gamma production
same,peptide-specific CTL activity (IFN-gamma production),[2]; listed as CDCA1-A11-9-123,potent IFN-gamma production; also recorded: significant specific CTL activity
same,peptide-specific CTL activity (IFN-gamma production),[1],potent IFN-gamma production
NVAEIVIHIR (a peptide derived from CDCA1) [SEQ ID NO: 67],IFN-gamma production of CTL lines,peptide-pulsed C1R-A33,potent IFN-gamma production
same,peptide-specific CTL activity (IFN-gamma production),[1],potent IFN-gamma production
SGIINFIHFR (a peptide derived from CDCA1) [SEQ ID NO: 68],peptide-specific CTL activity (IFN-gamma production),[1]; listed as CDCA1-A33-10-122,no specific IFN-gamma production; also recorded: specific IFN-gamma production was not observed
TVQKLKNAR (a peptide derived from CDCA1) [SEQ ID NO: 28],peptide-specific CTL activity (IFN-gamma production),[1],potent IFN-gamma production
